pIC50: −log10 of the molar value.
Tested on: 883617-216-R-J1-PDC complex spheroid viability
Experiment: Anticancer human tumor 883617-216-R-J1-PDC patient-derived bladder carcinoma cell line growth inhibition [POLQ]
Details: for pIC50: curve of first compound; for viability, T/C: stronger effect = lower value
Procedure: Multicellular complex tumor spheroid response to Polymerase (POL) inhibitors (novobiocin, ART-558, RP6685) in combination with a variety of drugs and investigational agents in selected tumor cell lines
The POL inhibitors (novobiocin, ART-558, and RP6685) were evaluated both individually and in combination with standard of care and investigational anticancer small molecules within a complex spheroid model of solid tumors. . Complex spheroids include a stromal component modeled by human endothelial cells (HUVEC) and fibroblasts modeled by human mesenchymal stem cells (MSCs). The concentration ranges selected for each drug and investigational agent were based upon clinically achievable concentrations if the clinical Cmax of the agent was known.
Compounds. The drugs and investigational agents: novobiocin (NSC847541), ART-558 (NSC835418), RP-6685 (NSC848927), peposertib (NSC802822), ceralasertib (NSC780249), elimusertib (NSC800525), camonsertib (NSC841442), AZD-1390 (NSC803789), olaparib (NSC753686), talazoparib (NSC767125), rucaparib (NSC756644), sotorasib (NSC818433), MRTX-1133 (NSC836407), SN-38 (NSC673596), topotecan (NSC609699), epotoside (NSC141540), doxorubicin (NSC123127), gemcitabine (NSC613327), 5-fluorouracil (NSC19893), paclitaxel (NSC125973), vemurafenib (NSC761431), MSA-2 (NSC828583), SN-011 (NSC837082), adavosertib (NSC754352), prexasertib (NSC758257), carboplatin (NSC241240) and oxaliplatin (NSC266046), were obtained from the National Cancer Institute (NCI) Developmental Therapeutics Program Chemical Repository (21). The FDA-approved anticancer drug set is available from the Developmental Therapeutics Program at https://dtp.cancer.gov/organization/dscb/obtaining/. […] The stock solutions were prepared in dimethyl sulfoxide (DMSO, Sigma-Aldrich, St. Louis, MO, cat. D2650), except for the platinum compounds which were prepared in saline (Quality Biological, Gaithersburg, MD, cat. 114-055-101), at 800-fold the tested concentration and stored at -70 degrees C prior to their use. All drugs and investigational agents were tested over a range starting from a high concentration at or near the clinical Cmax and decreasing in half-log increments. If the clinical Cmax for an agent had not been determined, the highest concentration tested was 10 microM, except for SN-38, which was tested at a high concentration of 1 microM.
Cell Culture. All cells were maintained in an incubator at 37 degrees C and 5% CO2 with 95% humidity. The PDC lines were cultured according to standard operating procedures established by the NCI PDMR (https://pdmr.cancer.gov). Table 3 of the manuscript, lists the cell lines along with the number of the three cell types plated to form the mct-spheroids and media for tumor cell growth. After thawing, all PDC lines, except 997537-175-T-J1-PDC and 415267-285-R-J2-PDC, were cultured in Matrigel-coated flasks prepared with a working solution of 1X Ham's F-12 nutrient mix, without supplementation (Thermo Fisher Scientific, cat. 11765054), 100 U/mL penicillin-streptomycin (Thermo Fisher Scientific, cat. 15140122), and 2.5% Matrigel (Corning Inc., Corning, NY, cat. 354248) for the first three passages. The two PDC lines 997537-175-T-J1-PDC and 415267-285-R-J2-PDC were cultured on uncoated flasks. The 857933-349-R-J2-PDC line was cultured in 6C/Colon 1B media containing advanced DMEM/F-12 (Thermo Fisher Scientific, cat. 12634028), 10 mM HEPES (Thermo Fisher Scientific, cat. 15630080), 1X GlutaMAX supplement (Thermo Fisher Scientific, cat. 35050061), 0.1 mg/mL primocin (InvivoGen, San Diego, CA, cat. ant-pm-2), 10% defined fetal bovine serum, heat inactivated (HyClone Laboratories Inc., Logan, UT, cat. SH30070.03HI), 50% L-WRN conditioned media (ATCC, cat. CRL-3276), 1.25 mM N-Acetyl-L-cysteine (Sigma-Aldrich, cat. A9165), 10 mM nicotinamide (Sigma-Aldrich, cat. N0636), 1X B-27 supplement (Thermo Fisher Scientific, cat. 17504044), 1X N-2 supplement (Thermo Fisher Scientific, cat. […]

[1] = second compound 0.0316 µM, first compound 0.0316 µM
[2] = second compound 0.0316 µM, first compound 0.1 µM
[3] = second compound 0.0316 µM, first compound 0.316 µM
[4] = second compound 0.0316 µM, first compound 1 µM
[5] = second compound 0.0316 µM, first compound 3.16 µM
[6] = second compound 0.0316 µM, first compound 10 µM
[7] = second compound 0.1 µM, first compound 0.0316 µM
[8] = second compound 0.1 µM, first compound 0.1 µM
[9] = second compound 0.1 µM, first compound 0.316 µM
[10] = second compound 0.1 µM, first compound 1 µM
[11] = second compound 0.1 µM, first compound 3.16 µM
[12] = second compound 0.1 µM, first compound 10 µM
[13] = second compound 0.316 µM, first compound 0.0316 µM
[14] = second compound 0.316 µM, first compound 0.1 µM
[15] = second compound 0.316 µM, first compound 0.316 µM
[16] = second compound 0.316 µM, first compound 1 µM
[17] = second compound 0.316 µM, first compound 3.16 µM
[18] = second compound 0.316 µM, first compound 10 µM
[19] = second compound 1 µM, first compound 0.0316 µM
[20] = second compound 1 µM, first compound 0.1 µM
[21] = second compound 1 µM, first compound 0.316 µM
[22] = second compound 1 µM, first compound 1 µM
[23] = second compound 1 µM, first compound 3.16 µM
[24] = second compound 1 µM, first compound 10 µM
[25] = second compound 3.16 µM, first compound 0.0316 µM
[26] = second compound 3.16 µM, first compound 0.1 µM
[27] = second compound 3.16 µM, first compound 0.316 µM
[28] = second compound 3.16 µM, first compound 1 µM
[29] = second compound 3.16 µM, first compound 3.16 µM
[30] = second compound 3.16 µM, first compound 10 µM
[31] = second compound 10 µM, first compound 0.0316 µM
[32] = second compound 10 µM, first compound 0.1 µM
[33] = second compound 10 µM, first compound 0.316 µM
[34] = second compound 10 µM, first compound 1 µM
[35] = second compound 10 µM, first compound 3.16 µM
[36] = second compound 10 µM, first compound 10 µM
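Further: spheroids exposed to compounds for seven days before readout.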
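Wherever viability, T/C is given: 100% = DMSO vehicle control viability.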

Compound: O=C(c1cc(Cc2n[nH]c(=O)c3ccccc23)ccc1F)N1CCN(C(=O)C2CC2)CC1 + COC1C(OC(N)=O)C(O)C(Oc2ccc3c(O)c(NC(=O)c4ccc(O)c(CC=C(C)C)c4)c(=O)oc3c2C)OC1(C)C
- pIC50 (second compound 0.0316 µM): < 5.00
- pIC50 (second compound 0.1 µM): < 5.00
- pIC50 (second compound 0.316 µM): < 5.00
- pIC50 (second compound 1 µM): < 5.00
- pIC50 (second compound 3.16 µM): < 5.00
- pIC50 (second compound 10 µM): < 5.00
- viability, T/C [1]: 106%
- viability, T/C [2]: 98%
- viability, T/C [3]: 103%
- viability, T/C [4]: 99.1%
- viability, T/C [5]: 72.5%
- viability, T/C [6]: 62.9%
- viability, T/C [7]: 91%
- viability, T/C [8]: 88.5%
- viability, T/C [9]: 88.9%
- viability, T/C [10]: 97.4%
- viability, T/C [11]: 81.6%
- viability, T/C [12]: 63%
- viability, T/C [13]: 96.1%
- viability, T/C [14]: 87.6%
- viability, T/C [15]: 100%
- viability, T/C [16]: 92.3%
- viability, T/C [17]: 78%
- viability, T/C [18]: 70.3%
- viability, T/C [19]: 97.4%
- viability, T/C [20]: 85.5%
- viability, T/C [21]: 109%
- viability, T/C [22]: 91.9%
- viability, T/C [23]: 96.1%
- viability, T/C [24]: 63.5%
- viability, T/C [25]: 91.2%
- viability, T/C [26]: 87.8%
- viability, T/C [27]: 95.8%
- viability, T/C [28]: 89%
- viability, T/C [29]: 79.1%
- viability, T/C [30]: 65.3%
- viability, T/C [31]: 94%
- viability, T/C [32]: 91.6%
- viability, T/C [33]: 94.8%
- viability, T/C [34]: 73.3%
- viability, T/C [35]: 98.7%
- viability, T/C [36]: 74.5%

Compound: O=c1[nH]cc(F)c(=O)[nH]1 + COC1C(OC(N)=O)C(O)C(Oc2ccc3c(O)c(NC(=O)c4ccc(O)c(CC=C(C)C)c4)c(=O)oc3c2C)OC1(C)C
- pIC50 (second compound 0.0316 µM): < 5.00
- pIC50 (second compound 0.1 µM): < 5.00
- pIC50 (second compound 0.316 µM): < 5.00
- pIC50 (second compound 1 µM): < 5.00
- pIC50 (second compound 3.16 µM): < 5.00
- pIC50 (second compound 10 µM): < 5.00
- viability, T/C [1]: 106%
- viability, T/C [2]: 96.4%
- viability, T/C [3]: 104%
- viability, T/C [4]: 105%
- viability, T/C [5]: 76.7%
- viability, T/C [6]: 59.8%
- viability, T/C [7]: 103%
- viability, T/C [8]: 105%
- viability, T/C [9]: 99.4%
- viability, T/C [10]: 94.6%
- viability, T/C [11]: 70.9%
- viability, T/C [12]: 60.9%
- viability, T/C [13]: 88.2%
- viability, T/C [14]: 99.6%
- viability, T/C [15]: 92.2%
- viability, T/C [16]: 93%
- viability, T/C [17]: 84.4%
- viability, T/C [18]: 63.5%
- viability, T/C [19]: 104%
- viability, T/C [20]: 94.2%
- viability, T/C [21]: 117%
- viability, T/C [22]: 80.2%
- viability, T/C [23]: 78%
- viability, T/C [24]: 69%
- viability, T/C [25]: 112%
- viability, T/C [26]: 92.8%
- viability, T/C [27]: 95.5%
- viability, T/C [28]: 91.7%
- viability, T/C [29]: 84.9%
- viability, T/C [30]: 65.4%
- viability, T/C [31]: 95.2%
- viability, T/C [32]: 99.6%
- viability, T/C [33]: 99.7%
- viability, T/C [34]: 85.3%
- viability, T/C [35]: 81.4%
- viability, T/C [36]: 78.2%
